“Also recorded” adds a separate entry of the source.
Legend:
HLO [1] = experiment: HLO survival assay, Intralipid exposed HLO (PNALD model); format: cell-based; settings: added to 400 μM Intralipid exposed HLO (PNALD-HLO); FGF19 40 ng/ml
Text: PNALD is an iatrogenic fatty liver disease which occurs frequently in infants provided with parental nutrition (PN) solutions employing a lipid emulsion (Intralipid) that provide life-sustaining calories in the setting of inadequate absorption of enteral nutrients (Kumar and Teckman, 2015; Orso et al., 2016). PNALD has a histological evidence of steatosis, cell death (apoptosis), and fibrosis (Nandivada et al., 2013). To recapitulate PNALD pathology in HLO, we reconstituted components of Intralipid and placed it directly into HLO culture.
[…]; Kumar and Teckman, 2015; Neuschwander-Tetri et al., 2015). To implicate the therapeutic significance of OCA and FGF19 for PNALD like pathology in HLO, OCA and FGF19 were added to 400 μM Intralipid exposed HLO. […] Mechanistically, the accumulation of reactive oxygen species (ROS) is strongly associated with the fatty liver related hepatocyte death (Nandivada et al., 2013; Tsedensodnom and Sadler, 2013). We thus wondered whether OCA and FGF19 would inhibit the production of ROS so we sought to confirm that theory with live-cell imaging with CellROX dye. […]. […]
HLO survival assay. […] HLO were captured on The KEYENCE BZ-X710 Fluorescence Microscope every day. The surviving and dead organoids were counted manually from the photo. HLO with a rounded configuration was counted as the surviving while the organoids with out of shape is counted as dead. […]

HLO [2] = experiment: ROS live-cell imaging with CellROX dye in HLO; format: cell-based, human; settings: for ROS production: 400 μM Intralipid treated HLO, live-cell imaging, CellROX
Text: Because there are no established ameliorative strategies, and PNALD is the leading indication for liver transplantation in infants (El Kasmi et al., 2013), we further investigated preventive and therapeutic effects of FXR agonist obeticholic acid (OCA) and FGF19 hormone that are activated by OCA, which have shown great potential in nonalcoholic steatohepatitis treatment (Dash et al., 2017; Kumar and Teckman, 2015; Neuschwander-Tetri et al., 2015). To implicate the therapeutic significance of OCA and FGF19 for PNALD like pathology in HLO, OCA and FGF19 were added to 400 μM Intralipid exposed HLO. […] Mechanistically, the accumulation of reactive oxygen species (ROS) is strongly associated with the fatty liver related hepatocyte death (Nandivada et al., 2013; Tsedensodnom and Sadler, 2013). We thus wondered whether OCA and FGF19 would inhibit the production of ROS so we sought to confirm that theory with live-cell imaging with CellROX dye.
Phagocyte, lipids, ROS live-cell imaging. After being cultured in an ultra-low attachment 6 multi-well plate, 5-10 HLO were picked up and seeded in a Microslide 8 Well Glass Bottom plate (Ibidi, WI, USA) and subjected to live-cell staining. The following antibodies were used: pHrodo® Red S. aureus Bioparticles® Conjugate for Phagocyte activity (Thermo Fisher Scientific Inc.), BODIPY® 493/503 for lipids (Thermo Fisher Scientific Inc.), Di-8-ANEPPS for membrane (Thermo Fisher Scientific Inc.), and CellROX green reagent for ROS detection (Thermo Fisher Scientific Inc.). Nuclear staining was marked by NucBlue Live ReadyProbes Reagent (Thermo Fisher Scientific Inc.). […] The final lipid droplet volume was calculated by IMARIS8 and normalized by each organoid size. Significance testing for lipid droplet volume and ROS production (%) was conducted by Student's t-test.

HLO [3] = experiment: HLO survival, 800 μM OA treated HLO (3D cell titer glo); format: cell-based, human; settings: 800 μM OA + FGF19 40 ng/ml, same time point
Protocol: LPS and FFA exposure and OCA and FGF19 treatment. 20-30 hLOHLO, which had been isolated from Matrigel and washed by 1×PBS, were divided into each condition and cultured on an ultra-low attachment 6 multi-well plates (Corning). HLO were cultured with LPS (Sigma), OA (Sigma), LA (Sigma), SA (Sigma), or PA (Sigma) and collected at day 1 and 3 (for LPS HLO) and at day 3 and 5 (for OA) after the culture. To test the inhibitory effect of OCA (INT-747, MedChem Express, NJ, USA) and human FGF19 recombinant (Sigma) on HLO, 20-30 HLO were cultured in HCM media in the presence or absence of oleic acid (800 μM), and 1 μM OCA and 40 ng/ml FGF19 were added into 800 μM OA condition. HLO were collected at day 3 for lipids live-cell imaging and at day 5 for stiffness measurement.
HLO survival assay. HLO were collected from Matrigel and washed by 1×PBS. 30-40 organoids were cultured on an ultra-low attachment 6 multi-well plate (Corning). HLO were captured on The KEYENCE BZ-X710 Fluorescence Microscope every day. The surviving and dead organoids were counted manually from the photo. HLO with a rounded configuration was counted as the surviving while the organoids with out of shape is counted as dead. To assess the survival rate of OA treated HLO at the same time point, 3D cell titer glo assay was used (Promega, Wi, USA).

HLO [4] = experiment: HLO stiffness measurement by AFM; format: cell-based, human
Protocol: To further determine whether OCA and FGF19 have an impact on fibrosis, HLO stiffness was assessed. Organoid damage induced by Intralipid is extremely significant and treated HLOs for 5 days are not able to be stabilized on a dish, which is a minimal requirement for assessing the rigidity by AFM. To circumvent this limitation, the stiffness was assessed at Day3.
LPS and FFA exposure and OCA and FGF19 treatment. 20-30 hLOHLO, which had been isolated from Matrigel and washed by 1×PBS, were divided into each condition and cultured on an ultra-low attachment 6 multi-well plates (Corning). […]
HLO stiffness measurement by AFM. […] The AFM head with a silicon nitride cantilever (CSC37, k=0.3 N/m, MikroMasch, Bulgaria) was mounted on a fluorescence stereo microscope (M205 FA, Leica, Germany) coupled with a Z-axis piezo stage (JPK CellHesion module, JPK Instruments, Germany), which allows the indentation measurement up to the depth of ˜100 μm. […] The sample dish was then placed onto the AFM stage, and force-distance curves in a 14×14 matrix in a 25×25 μm square were measured from each HLO. Finally, Young's moduli (E, Pa) of HLOs were determined by fitting the obtained force-distance curves with the modified Hertz model (Sneddon, 1965). […]

CC[C@H]1[C@@H](O)[C@@H]2[C@H](CC[C@]3(C)[C@@H]([C@H](C)CCC(=O)O)CC[C@@H]23)[C@@]2(C)CC[C@@H](O)C[C@@H]12 [OCA, obeticholic acid, reference compound]
number of surviving organoids (HLO [1]): around 83% | ROS production (HLO [2]): 20%

FGF19: human FGF19 recombinant (Sigma); hormone activated by OCA
number of surviving organoids (HLO [1]): ~78% | ROS production (HLO [2]): 30% | effect on ROS production caused by 400 μM Int (HLO [2]; 400 μM Intralipid, FGF19 40 ng/ml): inhibit the ROS production | survival of 800 μM OA HLO (HLO [3]): significantly improved | stiffness of OA treated HLO (AFM) (HLO [4]; 800 μM OA + FGF19 40 ng/ml): significantly softened; also recorded: decreased | progression of fibrosis (HLO stiffness) (HLO [4]; Intralipid treated HLO, stiffness assessed at Day3): reduce the progression of fibrosis
